The values below come from patent publication US12421229B2, “Hydropyrido[1,2-α]pyrazine compounds for the treatment of autoimmune disease” (Hoffmann-La Roche Inc., priority 2019, dated 2025).

The target in the experiment is T1, human TLR8 (Homo sapiens, UniProt Q9NR97).
T1 construct: host or cells: HEK293 (HEK-Blue hTLR8)
T1 sequence (Q9NR97 27-1041): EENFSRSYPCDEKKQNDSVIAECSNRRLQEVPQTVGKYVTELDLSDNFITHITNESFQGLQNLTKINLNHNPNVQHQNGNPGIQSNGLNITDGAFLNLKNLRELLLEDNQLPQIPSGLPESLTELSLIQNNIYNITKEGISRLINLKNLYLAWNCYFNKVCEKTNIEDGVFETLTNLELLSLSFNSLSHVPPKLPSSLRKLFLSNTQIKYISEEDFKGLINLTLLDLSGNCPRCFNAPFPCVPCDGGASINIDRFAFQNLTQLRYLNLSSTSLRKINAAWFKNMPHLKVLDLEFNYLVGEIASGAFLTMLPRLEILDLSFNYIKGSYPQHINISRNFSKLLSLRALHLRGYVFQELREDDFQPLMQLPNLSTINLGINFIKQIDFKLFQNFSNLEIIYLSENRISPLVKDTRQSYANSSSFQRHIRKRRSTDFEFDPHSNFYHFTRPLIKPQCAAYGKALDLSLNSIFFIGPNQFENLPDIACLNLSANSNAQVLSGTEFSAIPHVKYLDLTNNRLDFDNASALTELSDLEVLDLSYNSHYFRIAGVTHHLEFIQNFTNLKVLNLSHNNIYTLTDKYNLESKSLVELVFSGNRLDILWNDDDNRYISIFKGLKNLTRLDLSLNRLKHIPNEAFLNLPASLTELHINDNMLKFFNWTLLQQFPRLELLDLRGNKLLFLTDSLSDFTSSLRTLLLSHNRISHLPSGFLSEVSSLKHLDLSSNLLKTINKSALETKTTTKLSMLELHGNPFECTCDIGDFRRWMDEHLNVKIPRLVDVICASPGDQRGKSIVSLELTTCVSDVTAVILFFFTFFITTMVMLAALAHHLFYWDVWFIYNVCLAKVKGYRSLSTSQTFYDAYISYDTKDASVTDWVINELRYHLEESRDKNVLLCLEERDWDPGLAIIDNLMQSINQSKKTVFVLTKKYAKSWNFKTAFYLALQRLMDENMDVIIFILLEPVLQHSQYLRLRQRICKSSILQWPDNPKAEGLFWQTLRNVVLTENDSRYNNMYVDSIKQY
Kind of experiment: HEK293-Blue-hTLR-8 cells assay. Conditions: HEK293-Blue-hTLR8 cells, R848 stimulation, 20 hrs, SEAP reporter; read-out: HEK/hTLR8 IC50. It is filed as cell-based. From the text: A stable HEK293-Blue-hTLR-8 cell line was purchased from InvivoGen (Cat. #: hkb-htlr8, San Diego, California, USA). These cells were originally designed for studying the stimulation of human TLR8 by monitoring the activation of NF-κB. A SEAP (secreted embryonic alkaline phosphatase) reporter gene was placed under the control of the IFN-β minimal promoter fused to five NF-κB and AP-1-binding sites. The SEAP was induced by activating NF-κB and AP-1 via stimulating HEK-Blue hTLR8 cells with TLR8 ligands. Therefore the reporter expression was declined by TLR8 antagonist under the stimulation of a ligand, such as R848, for incubation of 20 hrs. The cell culture supernatant SEAP reporter activity was determined using QUANTI-Blue™ kit (Cat. #: rep-qb1, Invivogen, San Diego, Ca, USA) at a wavelength of 640 nm, a detection medium that turns purple or blue in the presence of alkaline phosphatase.
HEK293-Blue-hTLR8 cells were incubated at a density of 250,000˜450,000 cells/mL in a volume of 170 μL in a 96-well plate in Dulbecco's Modified Eagle's medium (DMEM) containing 4.5 g/L glucose, 50 U/mL penicillin, […], […], 2 mM L-glutamine, 10% (v/v) heat-inactivated fetal bovine serum with addition of 20 μL test compound in a serial dilution in the presence of final DMSO at 1% and 10 μL of 60 uM R848 in above DMEM, perform incubation under 37° C. in a CO2 incubator for 20 hrs. Then 20 μL of the supernatant from each well was incubated with 180 μL Quanti-blue substrate solution at 37° C. for 2 hrs and the absorbance was read at 620˜655 nm using a spectrophotometer. The signaling pathway that TLR8 activation leads to downstream NF-κB activation has been widely accepted, and therefore similar reporter assay was modified for evaluating TLR8 antagonist.
On to `C[C@@H]1CN(c2ccc(C#N)c3ncccc23)C[C@@H]2C[C@@H](Oc3ccc(N4CCNCC4)cn3)CCN21` [Example 11, 5-[(4R,8S,9aS)-4-methyl-8-[(5-piperazin-1-yl-2-pyridyl)oxy]-1,3,4,6,7,8,9,9a-octahydropyrido[1,2-a]pyrazin-2-yl]quinoline-8-carbonitrile], for which the IC50 was determined as 0.015 µM.

For `C[C@@H]1CN(c2ccc(C#N)c3ncccc23)C[C@@H]2C[C@H](c3ccc(N4C[C@@H](N)[C@@H](F)C4)nc3)CCN21` [Example 19, 5-[(4R,8R,9aS)-8-[6-[(3R,4S)-3-amino-4-fluoro-pyrrolidin-1-yl]-3-pyridyl]-4-methyl-1,3,4,6,7,8,9,9a-octahydropyrido[1,2-a]pyrazin-2-yl]quinoline-8-carbonitrile], the IC50 is 0.063 µM.

`C[C@@H]1CN(c2ccc(C#N)c3ncccc23)C[C@@H]2C[C@H](Nc3ccc(C[C@@H]4CNCCO4)cc3)CCN21` [Example 21, 5-[(4R,8R,9aS)-4-methyl-8-[4-[[(2R)-morpholin-2-yl]methyl]anilino]-1,3,4,6,7,8,9,9a-octahydropyrido[1,2-a]pyrazin-2-yl]quinoline-8-carbonitrile]: the IC50 was found to be 0.054 µM.
